Drawing on ChEMBL document CHEMBL3046623, “A search of novel antimicrobial based on benzimidazole and 2-pyridone heterocycles” (2012), this text covers MIC99 for 13 compounds.

The structures appear in SMILES notation. Values after ≈ are worked out from the molar mass of the structure shown.

What all share (format): functional
In one test the test system is Pseudomonas aeruginosa. Put plainly: Antibacterial activity against Pseudomonas aeruginosa MTCC 1688 after 24 to 48 hr by serial dilution method.
Another test concerns Streptococcus pyogenes. Put plainly: Antibacterial activity against Streptococcus pyogenes MTCC 442 after 24 to 48 hr by serial dilution method.
For a further test, the system named is Candida albicans. Kind of test: Antifungal activity against Candida albicans MTCC 227 after 72 hr. The conditions noted are these: MTCC 227, 72 h.
The subject of the next test is Aspergillus niger. Kind of test: Antifungal activity against Aspergillus niger MTCC 282 after 72 hr. The conditions noted are these: MTCC 282, 72 h.
The subject of a further test is Aspergillus clavatus. Put plainly: Antifungal activity against Aspergillus clavatus MTCC 1323 after 72 hr. The conditions noted are these: MTCC 1323, 72 h.
Another test deals with Staphylococcus aureus. Kind of test: Antibacterial activity against Staphylococcus aureus MTCC 96 after 24 to 48 hr by serial dilution method.
A further test relates to Escherichia coli. Kind of test: Antibacterial activity against Escherichia coli MTCC 443 after 24 to 48 hr by serial dilution method.

One may read the MIC99 as the lowest concentration that inhibits either 99% of growth or 99% of the strains tested, depending on the study. Read a high MIC99 as lower susceptibility. Consider `C/C(=N\n1c(/N=C/c2cccc(O)c2)c(C#N)c(-c2ccccc2O)c(C#N)c1=O)c1nc2ccccc2[nH]1`, for which the MIC99 in the test on Pseudomonas aeruginosa was found to be 250 mg/L (≈ 487 µM); against Streptococcus pyogenes, 500 mg/L (≈ 974 µM); against Candida albicans, 500 mg/L (≈ 974 µM); in the test on Aspergillus niger, 1000 mg/L (≈ 1950 µM); with Aspergillus clavatus, 1000 mg/L (≈ 1950 µM); against Staphylococcus aureus, 200 mg/L (≈ 389 µM). The compound also came in with an MIC99 against Escherichia coli of 250 mg/L (≈ 487 µM).
As for `C/C(=N\n1c(/N=C/c2cccc([N+](=O)[O-])c2)c(C#N)c(-c2ccccc2O)c(C#N)c1=O)c1nc2ccccc2[nH]1`, the MIC99 in the test with Pseudomonas aeruginosa was determined as 500 mg/L (≈ 922 µM); in the test on Streptococcus pyogenes, 200 mg/L (≈ 369 µM); with Candida albicans it was 500 mg/L (≈ 922 µM); against Aspergillus niger it was 1000 mg/L (≈ 1840 µM); against Aspergillus clavatus, 1000 mg/L (≈ 1840 µM); with Staphylococcus aureus, 200 mg/L (≈ 369 µM). For the same compound, the MIC99 against Escherichia coli came out at 500 mg/L (≈ 922 µM).
In the case of `C/C(=N\n1c(/N=C/c2ccc([N+](=O)[O-])cc2)c(C#N)c(-c2ccccc2O)c(C#N)c1=O)c1nc2ccccc2[nH]1`, the MIC99 was 250 mg/L (≈ 461 µM) against Pseudomonas aeruginosa; 250 mg/L (≈ 461 µM) in the test with Streptococcus pyogenes; 500 mg/L (≈ 922 µM) against Candida albicans; 1000 mg/L (≈ 1840 µM) with Aspergillus niger; 1000 mg/L (≈ 1840 µM) in the test with Aspergillus clavatus; 250 mg/L (≈ 461 µM) in the test with Staphylococcus aureus. The MIC99 against Escherichia coli was 250 mg/L (≈ 461 µM).
On to `COc1cc(/C=N/c2c(C#N)c(-c3ccccc3O)c(C#N)c(=O)n2/N=C(\C)c2nc3ccccc3[nH]2)cc(OC)c1OC`, for which the MIC99 against Pseudomonas aeruginosa came out at 250 mg/L (≈ 425 µM); in the test on Streptococcus pyogenes it was 500 mg/L (≈ 851 µM); with Candida albicans it was 1000 mg/L (≈ 1700 µM); against Aspergillus niger, 1000 mg/L (≈ 1700 µM); against Aspergillus clavatus it was 100 mg/L (≈ 170 µM); in the test on Staphylococcus aureus, 250 mg/L (≈ 425 µM). The same compound came in with an MIC99 in the test with Escherichia coli of 200 mg/L (≈ 340 µM).
Consider `C/C(=N\n1c(/N=C/c2ccccc2O)c(C#N)c(-c2ccccc2O)c(C#N)c1=O)c1nc2ccccc2[nH]1`, for which the MIC99 was found to be 150 mg/L (≈ 292 µM) in the test with Pseudomonas aeruginosa; 200 mg/L (≈ 389 µM) against Streptococcus pyogenes; 500 mg/L (≈ 974 µM) against Candida albicans; 1000 mg/L (≈ 1950 µM) with Aspergillus niger; 1000 mg/L (≈ 1950 µM) against Aspergillus clavatus; 200 mg/L (≈ 389 µM) in the test on Staphylococcus aureus. Besides, in the test on Escherichia coli, the MIC99 was 150 mg/L (≈ 292 µM).
Consider `COC1=CC(=O)C[C@@H](C)[C@]12Oc1c(Cl)c(OC)cc(OC)c1C2=O` [GRISEOFULVIN], for which the MIC99 in the test on Candida albicans was 500 mg/L (≈ 1420 µM); in the test on Aspergillus niger, 100 mg/L (≈ 283 µM); in the test with Aspergillus clavatus, 100 mg/L (≈ 283 µM).
For the compound `C/C(=N\n1c(/N=C/c2ccccc2)c(C#N)c(-c2ccccc2O)c(C#N)c1=O)c1nc2ccccc2[nH]1`, the MIC99 against Pseudomonas aeruginosa was 50 mg/L (≈ 100 µM); with Streptococcus pyogenes, 100 mg/L (≈ 201 µM); in the test with Candida albicans it was 200 mg/L (≈ 402 µM); in the test with Aspergillus niger, 100 mg/L (≈ 201 µM); against Aspergillus clavatus, 200 mg/L (≈ 402 µM); in the test with Staphylococcus aureus it was 250 mg/L (≈ 502 µM). In addition, the MIC99 with Escherichia coli was found to be 100 mg/L (≈ 201 µM).
Take `CC1(C)S[C@@H]2[C@H](NC(=O)[C@H](N)c3ccccc3)C(=O)N2[C@H]1C(=O)O` [AMPICILLIN]: the MIC99 turned out to be 100 mg/L (≈ 286 µM) against Pseudomonas aeruginosa, 100 mg/L (≈ 286 µM) in the test with Streptococcus pyogenes, 250 mg/L (≈ 715 µM) against Staphylococcus aureus and 100 mg/L (≈ 286 µM) against Escherichia coli.
On to `C/C(=N\n1c(/N=C/c2ccccc2Cl)c(C#N)c(-c2ccccc2O)c(C#N)c1=O)c1nc2ccccc2[nH]1`, for which the MIC99 in the test on Pseudomonas aeruginosa was 25 mg/L (≈ 47 µM); with Streptococcus pyogenes, 250 mg/L (≈ 470 µM); in the test on Candida albicans, 1000 mg/L (≈ 1880 µM); against Aspergillus niger it was 100 mg/L (≈ 188 µM); with Aspergillus clavatus, 1000 mg/L (≈ 1880 µM); in the test on Staphylococcus aureus, 100 mg/L (≈ 188 µM). In addition, the MIC99 in the test on Escherichia coli worked out at 250 mg/L (≈ 470 µM).
With `C/C(=N\n1c(/N=C/c2ccc(Cl)cc2)c(C#N)c(-c2ccccc2O)c(C#N)c1=O)c1nc2ccccc2[nH]1`, the MIC99 is 250 mg/L (≈ 470 µM) against Pseudomonas aeruginosa; 250 mg/L (≈ 470 µM) against Streptococcus pyogenes; 500 mg/L (≈ 940 µM) against Candida albicans; 1000 mg/L (≈ 1880 µM) against Aspergillus niger; 1000 mg/L (≈ 1880 µM) with Aspergillus clavatus; 100 mg/L (≈ 188 µM) in the test on Staphylococcus aureus. Also, the MIC99 in the test with Escherichia coli stood at 100 mg/L (≈ 188 µM).
As to `COc1cc(/C=N/c2c(C#N)c(-c3ccccc3O)c(C#N)c(=O)n2/N=C(\C)c2nc3ccccc3[nH]2)ccc1O`, the MIC99 is 100 mg/L (≈ 184 µM) in the test on Pseudomonas aeruginosa; 250 mg/L (≈ 460 µM) in the test on Streptococcus pyogenes; 1000 mg/L (≈ 1840 µM) against Candida albicans; 1000 mg/L (≈ 1840 µM) with Aspergillus niger; 1000 mg/L (≈ 1840 µM) against Aspergillus clavatus; 250 mg/L (≈ 460 µM) against Staphylococcus aureus. Also, in the test with Escherichia coli, the MIC99 worked out at 200 mg/L (≈ 368 µM).
For the compound `C/C(=N\n1c(/N=C/c2ccc(N(C)C)cc2)c(C#N)c(-c2ccccc2O)c(C#N)c1=O)c1nc2ccccc2[nH]1`, the MIC99 against Pseudomonas aeruginosa turned out to be 100 mg/L (≈ 185 µM); in the test with Streptococcus pyogenes, 100 mg/L (≈ 185 µM); against Candida albicans, 200 mg/L (≈ 370 µM); against Aspergillus niger, 500 mg/L (≈ 925 µM); against Aspergillus clavatus it was 500 mg/L (≈ 925 µM); against Staphylococcus aureus, 100 mg/L (≈ 185 µM). In the test on Escherichia coli, this compound returned an MIC99 of 62.5 mg/L (≈ 116 µM).
Regarding `C/C(=N\n1c(/N=C/c2ccc(O)cc2)c(C#N)c(-c2ccccc2O)c(C#N)c1=O)c1nc2ccccc2[nH]1`, the MIC99 worked out at 150 mg/L (≈ 292 µM) against Pseudomonas aeruginosa; 50 mg/L (≈ 97.4 µM) against Streptococcus pyogenes; 500 mg/L (≈ 974 µM) against Candida albicans; 1000 mg/L (≈ 1950 µM) against Aspergillus niger; 100 mg/L (≈ 195 µM) in the test on Aspergillus clavatus; 250 mg/L (≈ 487 µM) in the test with Staphylococcus aureus. The same compound displayed an MIC99 against Escherichia coli of 150 mg/L (≈ 292 µM).
